For 34 compounds, herbicidal activity results are on record in patent publication US11992012B2, “Diaminotriazine compounds” (BASF SE, priority 2018, dated 2024).

Test in all cases: greenhouse pre-emergence herbicidal test
Common to all, as to type: in vivo
Conditions in all cases: 250 g/ha, scale 0 to 100

One test has as its system Amaranthus retroflexus. The source says: (§1) The culture containers used were plastic flowerpots containing loamy sand with approximately 3.0% of humus as the substrate. The seeds of the test plants were sown separately for each species.
(§2) For the pre-emergence treatment, the active ingredients, which had been suspended or emulsified in water, were applied directly after sowing by means of finely distributing nozzles. The containers were irrigated gently to promote germination and growth and subsequently covered with transparent plastic hoods until the plants had rooted. This cover caused uniform germination of the test plants, unless this had been impaired by the active ingredients.
(§3) Depending on the species, the plants were kept at 10-25° C. or 20-35° C., respectively.
(§4) The test period extended over 2 to 4 weeks. During this time, the plants were tended, and their response to the individual treatments was evaluated.
(§5) Evaluation was carried out using a scale from 0 to 100. 100 means no emergence of the plants, or complete destruction of at least the aerial moieties, and 0 means no damage, or normal course of growth. A moderate herbicidal activity is given at values of at least 60, a good herbicidal activity is given at values of at least 70, and a very good herbicidal activity is given at values of at least 85.

The next test concerns Echinocloa crus-galli.
Description: as §1, §2, §3, §4, §5

Another test deals with Setaria faberi. An excerpt: The culture containers used were plastic flowerpots containing loamy sand with approximately 3.0% of humus as the substrate. The seeds of the test plants were sown separately for each species. For the pre-emergence treatment, the active ingredients, which had been suspended or emulsified in water, were applied directly after sowing by means of finely distributing nozzles. The containers were irrigated gently to promote germination and growth and subsequently covered with transparent plastic hoods until the plants had rooted. This cover caused uniform germination of the test plants, unless this had been impaired by the active ingredients. […] The test period extended over 2 to 4 weeks. During this time, the plants were tended, and their response to the individual treatments was evaluated. Evaluation was carried out using a scale from 0 to 100. 100 means no emergence of the plants, or complete destruction of at least the aerial moieties, and 0 means no damage, or normal course of growth.

With `CC(C)(F)c1nc(N)nc(Nc2c(F)cccc2OCc2cccc(OC(F)F)c2)n1` [Example 58], the herbicidal activity is reported as 100% in the test with Amaranthus retroflexus, 90% in the test on Echinocloa crus-galli and 100% with Setaria faberi.

On to `CCCC(F)c1nc(N)nc(Nc2c(OCc3ccccc3)cc(F)c(F)c2F)n1` (stereo not shown) [Example 169], for which the values for the herbicidal activity in the test with Amaranthus retroflexus and in the test on Setaria faberi were 80% and 85%, respectively.

In the case of `CC(C)Oc1cccc(COc2cccc(F)c2Nc2nc(N)nc(C(C)(C)F)n2)c1` [Example 132], the herbicidal activity is 90% with Amaranthus retroflexus, 100% in the test on Echinocloa crus-galli and 90% in the test with Setaria faberi.

As to `CC(C)(F)c1nc(N)nc(Nc2c(F)cccc2OCc2cccs2)n1` [Example 154], the herbicidal activity in the test with Amaranthus retroflexus, in the test with Echinocloa crus-galli and in the test with Setaria faberi was 100% throughout.

As for `CC(C)(F)c1nc(N)nc(Nc2c(OC(F)(F)c3cccc(F)c3)cc(F)c(F)c2F)n1` [Example 129], the herbicidal activity with Amaranthus retroflexus, in the test on Echinocloa crus-galli and with Setaria faberi was 100% each time.

Turning to `CCCC(F)c1nc(N)nc(Nc2c(F)ccc(F)c2OCc2ccccc2)n1` (stereo not shown) [Example 170], the herbicidal activity with Amaranthus retroflexus came out at 90%; in the test with Echinocloa crus-galli, 100%; in the test with Setaria faberi, 90%.

Take `Nc1nc(Nc2c(F)c(F)cc(F)c2OCc2ccccc2)nc(C2(F)CCCCC2)n1` [Example 256]: the herbicidal activity in the test on Amaranthus retroflexus, in the test with Echinocloa crus-galli and in the test with Setaria faberi was 100% throughout.

Take `CC(C)(F)c1nc(N)nc(Nc2c(F)ccc(Cl)c2OCc2ccccc2)n1` [Example 148]: the herbicidal activity in the test on Amaranthus retroflexus, in the test with Echinocloa crus-galli and with Setaria faberi was 100% in each case.

For the compound `CC(C)(F)c1nc(N)nc(Nc2c(F)ccc(F)c2OC(F)(F)c2ccccc2)n1` [Example 142], the herbicidal activity in the test on Amaranthus retroflexus, with Echinocloa crus-galli and with Setaria faberi was 100% each time.

Consider `CC(C)(F)c1nc(N)nc(Nc2c(OC(F)(F)c3ccccc3)cc(F)c(F)c2F)n1` [Example 116], for which the herbicidal activity with Amaranthus retroflexus, in the test on Echinocloa crus-galli and in the test with Setaria faberi was 100% in each case.

Take `COC(C)c1nc(N)nc(Nc2c(F)ccc(F)c2OCc2ccccc2)n1` (stereo not shown) [Example 191]: the figures for the herbicidal activity in the test on Amaranthus retroflexus, in the test on Echinocloa crus-galli and in the test on Setaria faberi were 95%, 100% and 100%, respectively.

In the case of `COC(C)c1nc(N)nc(Nc2c(F)c(F)cc(F)c2OCc2ccccc2F)n1` (stereo not shown) [Example 240], the herbicidal activity was found to be 100% in the test on Amaranthus retroflexus, 90% with Echinocloa crus-galli and 95% in the test with Setaria faberi.

`CC1(c2nc(N)nc(Nc3c(F)cccc3OCc3ccccc3)n2)CCC1` [Example 52]: the herbicidal activity in the test on Echinocloa crus-galli came out at 90%; in the test on Setaria faberi it was 85%.

Consider `CC(C)(F)c1nc(N)nc(Nc2c(F)c(Br)cc(Br)c2OCc2ccccc2)n1` [Example 235], for which the herbicidal activity was found to be 85% with Amaranthus retroflexus, 90% with Echinocloa crus-galli and 100% in the test with Setaria faberi.

Regarding `CCc1ccc(COc2c(F)ccc(F)c2Nc2nc(N)nc(C(C)(C)F)n2)cc1` [Example 140], the figures for the herbicidal activity in the test with Echinocloa crus-galli and in the test on Setaria faberi were 98% and 100%, respectively.

Consider `CC(C)(F)c1nc(N)nc(Nc2c(F)ccc(F)c2OCc2ccccc2)n1` [Example 72], for which the herbicidal activity in the test on Amaranthus retroflexus, with Echinocloa crus-galli and in the test on Setaria faberi was 100% throughout.

Regarding `CC(C)(F)c1nc(N)nc(Nc2c(F)ccc(C#N)c2OCc2ccccc2)n1` [Example 259], the herbicidal activity with Amaranthus retroflexus and in the test with Setaria faberi was 100% each time.

With `COC(C)(C)c1nc(N)nc(Nc2c(F)cccc2OC(F)(F)c2ccccc2)n1` [Example 117], the herbicidal activity with Amaranthus retroflexus, in the test with Echinocloa crus-galli and with Setaria faberi was 100% in each case.

For `CC(C)(F)c1nc(N)nc(Nc2c(F)cccc2OCc2ccc(F)cc2)n1` [Example 6], the herbicidal activity with Amaranthus retroflexus, in the test on Echinocloa crus-galli and in the test on Setaria faberi was 100% each time.

With `COC(C)(C)c1nc(N)nc(Nc2c(F)ccc(F)c2OCc2ccccc2)n1` [Example 135], the herbicidal activity in the test on Amaranthus retroflexus, with Echinocloa crus-galli and with Setaria faberi was 100% throughout.

Regarding `CC(C)(F)c1nc(N)nc(Nc2c(F)cccc2OCc2cc(F)cc(F)c2F)n1` [Example 74], the herbicidal activity turned out to be 80% with Amaranthus retroflexus and 85% with Echinocloa crus-galli.

With `COc1ccc(COc2c(F)cc(F)c(F)c2Nc2nc(N)nc(C(C)F)n2)cc1` (stereo not shown) [Example 212], the herbicidal activity with Amaranthus retroflexus, in the test with Echinocloa crus-galli and in the test on Setaria faberi was 100% in each case.

Regarding `CC(C)(F)c1nc(N)nc(Nc2c(F)cccc2OCc2nccs2)n1` [Example 36], the herbicidal activity stood at 100% in the test on Amaranthus retroflexus and 75% in the test with Echinocloa crus-galli.

`COC(C)c1nc(N)nc(Nc2c(F)c(F)cc(F)c2OCc2ccccc2C)n1` (stereo not shown) [Example 237]: the herbicidal activity in the test with Amaranthus retroflexus is recorded as 95%; in the test with Echinocloa crus-galli, 100%; with Setaria faberi, 95%.

For the compound `COC(C)(C)c1nc(N)nc(Nc2c(F)c(F)cc(F)c2OCc2ccccc2)n1` [Example 213], the herbicidal activity with Amaranthus retroflexus, in the test on Echinocloa crus-galli and in the test on Setaria faberi was 100% throughout.

Regarding `CC(C)(F)c1nc(N)nc(Nc2c(OCc3cccc(F)c3)cc(F)c(F)c2F)n1` [Example 97], the herbicidal activity with Amaranthus retroflexus, in the test with Echinocloa crus-galli and with Setaria faberi was 100% each time.

As for `COC(C)(C)c1nc(N)nc(Nc2c(F)cccc2OCc2cccc(F)c2)n1` [Example 114], the herbicidal activity in the test with Echinocloa crus-galli and in the test with Setaria faberi was 90% throughout.

Regarding `CC(C)(F)c1nc(N)nc(Nc2c(F)cccc2OCc2csc(Cl)c2)n1` [Example 110], the herbicidal activity in the test on Echinocloa crus-galli was found to be 90%; in the test on Setaria faberi it was 80%.

On to `COc1ccc(COc2c(F)ccc(F)c2Nc2nc(N)nc(C(C)(C)F)n2)cc1` [Example 192], for which the herbicidal activity in the test with Echinocloa crus-galli and in the test with Setaria faberi was 100% each time.

As to `CC(C)=C(F)c1nc(N)nc(Nc2c(F)cccc2OCc2ccccc2)n1` [Example 152], the herbicidal activity in the test on Amaranthus retroflexus is on record as 100%; in the test on Setaria faberi, 90%.

As for `CC(F)c1nc(N)nc(Nc2c(F)cccc2OCc2ccccc2)n1` (stereo not shown) [Example 161], the herbicidal activity with Echinocloa crus-galli and in the test with Setaria faberi was 100% throughout.

As for `COc1c(F)cc(COc2cccc(F)c2Nc2nc(N)nc(C(C)(C)F)n2)cc1F` [Example 73], the herbicidal activity in the test with Amaranthus retroflexus worked out at 70%; in the test on Echinocloa crus-galli it was 75%.

Turning to `CC(Oc1cccc(F)c1Nc1nc(N)nc(C(C)(C)F)n1)c1ccccc1` (stereo not shown) [Example 23], the herbicidal activity was found to be 100% with Echinocloa crus-galli and 75% with Setaria faberi.

As for `CC(C)c1nc(N)nc(Nc2c(F)cccc2OCc2ccccc2)n1` [Example 194], the figures for the herbicidal activity in the test on Echinocloa crus-galli and with Setaria faberi were 100% and 70%, respectively.
